Results reported in EP2465859A1, “8-Triazolylxanthine derivatives, processes for their production and their use as adenosine receptor antagonists” (Life & Brain GmbH, priority 2010, dated 2012).
pEC50, pIC50: −log10 of the molar value.

Assays:
Format in all cases: cell-based
[1] = biological target: T1, human A2B receptor (Homo sapiens, UniProt P29275); experiment: cAMP assay in HEK cells recombinantly expressing the human A2B receptor
T1 construct: expressed in transfected cells; host or cells: HEK cells
T1 sequence (P29275 1-332): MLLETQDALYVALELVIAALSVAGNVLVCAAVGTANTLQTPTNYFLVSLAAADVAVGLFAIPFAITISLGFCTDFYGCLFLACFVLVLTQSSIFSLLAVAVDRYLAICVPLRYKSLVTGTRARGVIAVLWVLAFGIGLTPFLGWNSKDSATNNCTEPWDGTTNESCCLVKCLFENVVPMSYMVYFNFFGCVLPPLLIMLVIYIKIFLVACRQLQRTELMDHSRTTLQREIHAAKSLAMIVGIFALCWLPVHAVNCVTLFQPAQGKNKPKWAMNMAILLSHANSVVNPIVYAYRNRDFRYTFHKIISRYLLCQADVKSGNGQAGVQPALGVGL
Experimental: Example 52: cAMP assay The preparation of cAMP binding protein was carried out as previously described by Nordstedt and Fredholm (Anal. Biochem. 1990, 189, 231-234). 5'-(N-Ethylcarboxamido)adenosine (NECA) was obtained from Sigma. For cAMP experiments HEK cells, expressed the human recombinant A2B receptor were removed from a confluent 175 cm^2 flask, transferred into a falcon tube and spun down at 200 g, 4 °C for 5 min. After removal of the supernatant, the cell pellet was resuspended in Hank's buffered saline solution (HBSS, pH 7.4). 200 µl of the cell solution (∼ 200.000 cells per well) with 2 U/ml ADA was transferred into each well of a 24-well plate. After an incubation time of 1.5 h at 37 °C, 5 % CO2, 25 µL of the phosphodiesterase (PDE) inhibitor Ro-20-1724 (40 µM f.c.), dissolved in 100 % HBSS-puffer was added to each well and incubated for 10 min at 37 °C. […] After 10 min incubation time 12.5 µl of agonist (NECA) dissolved in the same buffer as well, was added and incubated for 15 min at 37 °C. NECA was incubated in concentrations of 10 µM and 1 µM alone as an control experiment. […] Well plates were put on ice and each well was subsequently homogenised by pipetting 6-7 times up and down. Competition binding experiments were performed in a final volume of 120 µl containing 50 µl of cell lysates, 30 µl of [^3H]cAMP (f.c. 3 nM) in lysis buffer (4 mM EDTA, 0.01 % trition X-100) and 40 µl of cAMP binding protein in the same buffer (50 µg protein per vial). Total binding was determined in the absence of cold cAMP and nonspecific binding was determined in the absence of cold cAMP and without binding protein. For a cAMP standard curve 50 µl of known cAMP concentration was put instead of 50 µl cell lysate. […] Then, filters were transferred to vials, incubated for 9 h with 2.5 mL of scintillation cocktail (Beckmann Coulter), and counted in a liquid scintillation counter (Tricarb 2700TR) with a counting efficiency of ∼ 54%.

[2] = test system: TNFα expression in ESdM cells; experiment: ELISA assay: TNFα expression in ESdM cells stimulated with LPS and NECA or adenosine; details: for pIC50: 24 h, LPS-induced TNFα expression in the presence of NECA (100 nM NECA, 100 ng/ml LPS), read-out: EC50 (the source's name); for TNF alpha expression: 100 nM NECA, various antagonist concentrations; for functional character at human A2B adenosine receptors: conclusion from the ELISA functional experiment
Experimental: With the ELISA assay in Fig. 5 the effects of adenosine receptor antagonists were investigated. […] In the presence of the antagonists to be investigated, the influence on the TNFα expression was analyzed. The cytokine expression was determined in the ELISA.
The determined EC50 concentration amounted to 60 nM. ESdM cells were stimulated with 100 nM of NECA and 100 ng/ml of LPS, and the A2B antagonist 1a was added to the stimulated cells at various concentrations for 24 h. The supernatants of the cells were investigated for TNFα expression in an ELISA.
Example 53: ELISA Assay The ELISA assay was used to investigate the effects of adenosine antagonists. […] In the presence of the antagonists to be investigated, their influence on TNFα expression was analyzed. The cytokine expression was determined in the ELISA (Fig. 5).
To evaluate, whether ESdM cells can be stimulated by Adenosine 3 x 10^5 ESdM cells were seeded in 12 wells. The next day the cells have been stimulated with 1 µM Adenosine (Sigma-Aldrich) and different concentrations of LPS (10 ng/ml, 100 ng/ml and 500 ng/ml, Sigma-Aldrich). Supernatants were collected 24 hours later and were analysed for TNFα expression in an ELISA (EBioscience). As shown here (Fig. 6A), ESdM cells are sensitive for stimulation with 1 µM adenosine. Best results are achieved with a LPS concentration of 100 ng/ml, whereas 500 ng/ml of LPS provide […] detectable TNFα values.
To examine, if ESdM cells can also be stimulated with the synthetic adenosine receptor agonist NECA, ESdM cells were seeded in 12 wells in the same concentration as mentioned before. These cells were treated with different concentrations of NECA (1 µM and 100 nM) and 100 ng/ml LPS. The next day supernatants were collected and analysed for TNFα expression.
To analyse the effect of the A2B antagonist 1a, 3 x 10^5 ESdM cells were seeded in 12 wells. The next day cells were stimulated with 100 nM NECA, 100 ng/ml LPS and various concentrations (10 pM-10 nM) of A2B-receptor antagonist 1a Supernatants of the cells were investigated for TNFα expression in an ELISA.

[3] = biological target: T2, human adenosine A2B receptor (Homo sapiens, UniProt P29275); experiment: cAMP assay in CHO cells recombinantly expressing the human adenosine A2B receptor (NECA dose-response curve shift); details: for NECA-induced increase in cAMP formation / mode of antagonism (NECA curve shifted to the right): single antagonist concentration, ~5-fold of the Ki value
T2 construct: expressed in transfected cells; host or cells: CHO cells
T2 sequence (P29275 1-332): T1 sequence (P29275 1-332)
Experimental: Dose-response curves for the agonist NECA were determined in the absence and in the presence of a single concentration of the new antagonists 1d and 1f, using a ∼ 5-fold concentration of the Ki-values.

| Compound | pIC50 ([2]; ESdM cells) | TNF alpha expression ([2]; ESdM cells, 100 ng/ml LPS) | functional character at human A2B adenosine receptors [2] | further results |
| --- | --- | --- | --- | --- |
| Cn1c(=O)c2[nH]c(-c3cn(Cc4cccc(C(F)(F)F)c4)nn3)nc2n(C)c1=O [1a, 1,3-Dimethyl-8-(1-(3-(trifluoromethyl)benzyl)-1H-1,2,3-triazol-4-yl)-1H-purine-2,6(3H,7H)-dione] | 5.59 | dose-dependent decrease | confirmed as antagonists | NECA-induced increase in cAMP formation ([1]; NECA 10 µM and 1 µM, antagonist 5 µM): inhibited; effect on cAMP levels of the compound itself ([1]; compound alone): no effect; pEC50 ([2]; ESdM cells, 100 nM NECA and 100 ng/ml LPS, antagonist for 24 h, TNFα in supernatant (Fig. 7A), read-out: EC50 concentration): 7.22 |
| CCn1c(=O)c2[nH]c(-c3cn(Cc4cccc(C(F)(F)F)c4)nn3)nc2n(CC)c1=O [1b, 1,3-Diethyl-8-(1-(3-(trifluoromethyl)benzyl)-1H-1,2,3-triazol-4-yl)-1H-purine-2,6(3H,7H)-dione] | 5.96 | dose dependent decrease | confirmed as antagonists |  |
| CCCn1c(=O)[nH]c2nc(-c3cn(Cc4cccc(C(F)(F)F)c4)nn3)[nH]c2c1=O [1d, 1-Propyl-8-(1-(3-(trifluoromethyl)benzyl)-1H-1,2,3-triazol-4-yl)-1H-purine-2,6(3H,7H)-dione] | 5.95 | dose dependent decrease | confirmed as antagonists | NECA-induced increase in cAMP formation [3]: inhibited; mode of antagonism (NECA curve shifted to the right) [3]: competitive antagonism |
| C#CCn1c(=O)c2[nH]c(-c3cn(Cc4cccc(C(F)(F)F)c4)nn3)nc2n(C)c1=O [1f, 3-Methyl-1-(prop-2-ynyl)-8-(1-(3-(trifluoromethyl)-benzyl)-1H-1,2,3-triazol-4-yl)-1H-purine-2,6(3H,7H)-dione] | 5.87 | dose dependent decrease | confirmed as antagonists | NECA-induced increase in cAMP formation [3]: inhibited; mode of antagonism (NECA curve shifted to the right) [3]: competitive antagonism |
| Cn1c(=O)n(CC2CC2)c(=O)c2[nH]c(-c3cn(Cc4cccc(C(F)(F)F)c4)nn3)nc21 [1g, 1-(Cyclopropylmethyl)-3-methyl-8-(1-(3-(trifluoromethyl)benzyl)-1H-1,2,3-triazol-4-yl)-1H-purine-2,6(3H,7H)-dione] | 5.63 | dose dependent decrease | confirmed as antagonists |  |
| CCNC(=O)[C@H]1O[C@@H](n2cnc3c(N)ncnc32)[C@H](O)[C@@H]1O [NECA, 5'-(N-Ethylcarboxamido)adenosine, reference compound] |  |  |  | cAMP formation ([1]; agonist, 10 µM and 1 µM): concentration-dependent increase; stimulation of TNFα expression in ESdM cells following LPS stimulation ([2]; 1 µM and 100 nM NECA, 100 ng/ml LPS): sensitive; cAMP formation ([3]; agonist dose-response curve): concentration-dependent increase |
| Nc1ncnc2c1ncn2[C@@H]1O[C@H](CO)[C@@H](O)[C@H]1O [adenosine] |  |  |  | stimulation of TNFα expression in ESdM cells following LPS stimulation ([2]; 1 µM adenosine, LPS 10, 100 and 500 ng/ml, 24 hours): sensitive |
